# According to a melting point compilation (Tetko et al.):
row,melting point [°C],SMILES
1,205 to 207,NC(=O)N1CCCC1C(=O)O (stereo unspecified)
2,269 to 271,Nc1n[nH]c(C(=O)O)c1-c1ccccc1
3,42 to 44,Cc1ccc(N2CCCC2)c(C#N)c1
4,232 to 234,COc1ccc(C(=O)O)nc1Br
5,138 to 140,NCc1ccc(N2CCC(CO)CC2)cc1
6,136 to 138,NC(=O)CCNc1ccccc1[N+](=O)[O-]
7,186 to 188,O=C(O)C1CCN(c2ccc(Cl)nn2)CC1
8,293 to 295,O=C(O)c1cccc2c1C(=O)c1ccccc1C2=O
9,87 to 89,O=S(=O)(Cl)c1cccc(-c2nnco2)c1
10,109 to 111,CC(=O)Nc1cc(C)c(S(=O)(=O)Cl)cc1Br
11,219 to 221,Cc1cc2n(n1)C(=O)CC(=O)N2
12,129 to 131,Cc1nn2c(CO)c(C)nc2s1
13,229 to 231,Nc1nnc2ccccn12
14,102 to 104,CN(C(=O)CSc1ccccc1C(=O)O)C1CCCCC1
15,238 to 240,O=[N+]([O-])c1cccc(-c2nccs2)c1
16,204 to 206,COc1ccc(NCCCC(=O)O)cc1
17,175 to 177,COc1ccc(NS(=O)(=O)c2ccc3oc(S)nc3c2)cc1
18,255 to 257,N=c1nc[nH]c2c1ncn2CCC(N)=O
19,69 to 71,CC(C)(C)OC(=O)Nc1ccsc1Br
20,112 to 114,COC(=O)/C=C/c1ccc(S(=O)(=O)Cl)cc1
21,135 to 137,Nc1nc(-c2ccccn2)cs1
22,195 to 197,Nc1cc(S(=O)(=O)Nc2ccccc2Cl)ccc1O
23,64 to 66,FC(F)Oc1cccc2cccnc12
24,86 to 88,CC(C)CNc1nc(-c2ccccc2[N+](=O)[O-])cs1
25,94 to 96,CC(CCc1ccccc1)NS(=O)(=O)c1ccc(Cl)c(C(=O)O)c1 (stereo unspecified)
26,280 to 282,Cc1ccccc1-n1c(S)nnc1-c1ccncc1
27,107 to 109,CC(=O)c1ccc(N)nc1
28,76 to 78,COC(=O)c1ncccc1O

row,melting point [°C],SMILES
1,124 to 126,Cc1ccc(N2CCOC2=O)cc1N
2,42 to 44,COCC(C)C(N)=S (stereo unspecified)
3,160 to 162,CCNC(=O)c1cccc(O)c1
4,128 to 130,Cc1ccc(N)cc1N1CCCS1(=O)=O
5,239 to 241,NC1(C(=O)O)CCOc2ccccc21 (stereo unspecified)
6,156 to 158,CC(C)(C)c1ccc(Oc2ccc(C=O)cc2[N+](=O)[O-])cc1
7,153 to 155,NC(=NO)c1ccc(Br)cc1
8,219 to 221,Cn1cc(S(=O)(=O)N2CCCC2)cc1C(=O)O
9,154 to 156,CCOc1ccc(N)cc1S(N)(=O)=O
10,120 to 122,Nc1cccc(NC(=O)c2ccoc2)c1
11,139 to 141,Nc1ncc(Cc2c(Cl)cccc2Cl)s1
12,30 to 41,Fc1ccc(-c2cnc(CBr)o2)cc1
13,184 to 186,O=C1Nc2cc(F)ccc2C1=O
14,85 to 87,CCCC(=O)Nc1ccc(CN)cc1
15,244 to 246,O=C(O)C1=C(c2ccccc2)N2CCS(=O)(=O)N=C2S1
16,192 to 194,CC(=O)Nc1c(Br)cccc1[N+](=O)[O-]
17,96 to 98,Cc1nc(C2COCCN2C(=O)OC(C)(C)C)no1 (stereo unspecified)
18,153 to 155,CC(=O)N(C)c1ccc(S(N)(=O)=O)cc1
19,133 to 135,CC(C)c1ccccc1Oc1ccccc1C(=O)O
20,64 to 66,COc1ccc(C=NO)cc1
21,76 to 78,Cc1nc2nc(Br)ccc2o1
22,255 to 257,O=C(O)c1c[nH]c2ccc([N+](=O)[O-])cc12
23,118 to 120,CN(C)S(=O)(=O)c1ccc(F)c([N+](=O)[O-])c1
24,177 to 179,CNC(=O)c1ccc(N)cc1
25,231 to 233,O=c1[nH]cnc2scc(-c3ccc(F)cc3)c12
26,83 to 85,Cn1ccnc1C(=O)OCC(F)(F)F
27,101 to 103,COc1ccc(Cl)cc1NC(=O)CCl

row,SMILES,melting point [°C]
1,Cc1cc(NC(=O)CCl)n(C)n1,115 to 117
